Assay results taken from ChEMBL document CHEMBL3887002, “Biaryl ether sulfonamides and their use as therapeutic agents” (2016).

Target: Sodium channel protein type 9 subunit alpha (Homo sapiens, UniProt Q15858)
Experiment: Electrophysiological Assay (In vitro Assay): Patch voltage clamp electrophysiology allows for the direct measurement and quantification of block of voltage-gated sodium channels (Nav's), and allows the determination of the time- and voltage-dependence of block which has been interpreted as differential binding to the resting, open, and inactivated states of the sodium channel (Hille, B., Journal of General Physiology (1977), 69: 497-515).The following patch voltage clamp electrophysiology studies were performed on representative compounds of the invention using human embryonic kidney cells (HEK), permanently transfected with an expression vector containing the full-length cDNA coding for the desired human sodium channel α-subunit, grown in culture media containing 10% FBS, 1% PSG, and 0.5 mg/mL G418 at 37° C. with 5% CO2. […] Nav1.7 and Nav1.5 cDNAs (NM_00297
Assay type: cell-based, HEK293

Sequence of Sodium channel protein type 9 subunit alpha (Q15858 whole entry): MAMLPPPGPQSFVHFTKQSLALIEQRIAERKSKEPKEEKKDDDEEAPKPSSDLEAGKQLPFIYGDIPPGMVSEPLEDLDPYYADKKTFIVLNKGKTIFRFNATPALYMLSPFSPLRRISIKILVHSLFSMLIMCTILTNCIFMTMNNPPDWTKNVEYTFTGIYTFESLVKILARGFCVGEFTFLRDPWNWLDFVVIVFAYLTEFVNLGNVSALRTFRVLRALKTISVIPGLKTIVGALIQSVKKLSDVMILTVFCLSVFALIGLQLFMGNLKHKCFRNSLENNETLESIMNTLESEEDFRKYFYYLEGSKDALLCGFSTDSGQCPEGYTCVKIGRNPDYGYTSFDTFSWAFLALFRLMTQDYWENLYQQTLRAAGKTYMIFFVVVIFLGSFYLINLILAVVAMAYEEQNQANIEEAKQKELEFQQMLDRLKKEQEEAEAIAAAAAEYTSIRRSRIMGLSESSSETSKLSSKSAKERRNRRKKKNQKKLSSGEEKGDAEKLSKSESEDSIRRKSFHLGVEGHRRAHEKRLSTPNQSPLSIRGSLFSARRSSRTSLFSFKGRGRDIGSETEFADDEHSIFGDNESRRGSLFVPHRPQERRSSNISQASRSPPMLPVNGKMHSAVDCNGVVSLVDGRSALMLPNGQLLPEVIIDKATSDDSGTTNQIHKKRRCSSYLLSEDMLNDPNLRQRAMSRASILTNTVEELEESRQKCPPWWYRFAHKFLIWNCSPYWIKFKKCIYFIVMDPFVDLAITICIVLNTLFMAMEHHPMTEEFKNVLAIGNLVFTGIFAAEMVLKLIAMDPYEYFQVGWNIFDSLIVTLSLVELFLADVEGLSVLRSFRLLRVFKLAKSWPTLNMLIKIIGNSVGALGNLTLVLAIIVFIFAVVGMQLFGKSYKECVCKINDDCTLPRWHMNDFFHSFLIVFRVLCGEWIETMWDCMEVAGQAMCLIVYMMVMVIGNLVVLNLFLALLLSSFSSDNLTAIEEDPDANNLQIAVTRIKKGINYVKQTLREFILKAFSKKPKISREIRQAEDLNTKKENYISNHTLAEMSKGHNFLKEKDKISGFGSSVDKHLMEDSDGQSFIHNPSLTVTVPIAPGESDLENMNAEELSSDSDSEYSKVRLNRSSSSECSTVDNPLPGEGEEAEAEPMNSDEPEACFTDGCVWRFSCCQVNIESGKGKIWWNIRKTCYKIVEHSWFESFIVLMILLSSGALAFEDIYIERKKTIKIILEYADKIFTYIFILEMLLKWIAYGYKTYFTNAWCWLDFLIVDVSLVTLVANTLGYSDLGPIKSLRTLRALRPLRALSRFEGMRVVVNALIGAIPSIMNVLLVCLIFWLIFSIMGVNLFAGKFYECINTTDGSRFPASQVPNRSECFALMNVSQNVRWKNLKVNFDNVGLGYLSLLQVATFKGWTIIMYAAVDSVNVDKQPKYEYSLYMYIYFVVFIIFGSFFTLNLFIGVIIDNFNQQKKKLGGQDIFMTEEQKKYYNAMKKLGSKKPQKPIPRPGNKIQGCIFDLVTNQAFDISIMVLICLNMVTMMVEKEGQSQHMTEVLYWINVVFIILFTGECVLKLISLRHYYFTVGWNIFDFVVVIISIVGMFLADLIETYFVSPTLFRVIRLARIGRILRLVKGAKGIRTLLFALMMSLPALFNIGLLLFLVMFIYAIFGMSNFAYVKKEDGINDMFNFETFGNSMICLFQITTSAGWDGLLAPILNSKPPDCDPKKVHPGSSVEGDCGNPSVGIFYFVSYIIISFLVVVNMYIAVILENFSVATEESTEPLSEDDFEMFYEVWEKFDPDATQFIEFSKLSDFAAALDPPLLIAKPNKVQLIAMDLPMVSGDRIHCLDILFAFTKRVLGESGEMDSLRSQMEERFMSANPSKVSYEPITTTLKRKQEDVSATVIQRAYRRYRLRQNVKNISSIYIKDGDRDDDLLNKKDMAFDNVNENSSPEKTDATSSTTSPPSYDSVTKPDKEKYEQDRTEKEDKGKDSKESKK

O=S(=O)(Nc1ncccc1F)c1cc(F)c(Oc2ccc(Cl)cc2-c2cccc3nccn23)cc1F
IC50: 23.2 nM
